24 compounds from patent US10173971B2, “Picolinamides with fungicidal activity” (DOW AGROSCIENCES LLC, priority 2014, dated 2019) can be followed below.

Read-outs that look alike come from different tables or passages of the source.

For assay [1], the system named is Zymoseptoria tritici. Description: Fungicidal activity: leaf blotch of wheat (SEPTTR), wheat seedlings, booth sprayer to run-off or track spray. The class given is in vivo. The conditions noted are these: for pest or weed control at 121.5 g/ha: Low-Volume Cereal Activity at 121.5 g/H; for pest or weed control at 100 ppm: High-Volume Cereal Activity at 100 ppm.
In assay [2] the test system is Phakopsora pachyrhizi. In words: Fungicidal activity: Asian soybean rust (PHAKPA), soybean seedlings. As to conditions: 25 ppm, soybean plants (variety Williams 82); for Disease Control PHAKPA 1DP: 1 Day Protectant; for Disease Control PHAKPA 3DC: 3 Day Curative.
Assay [3] concerns Puccinia triticina. Description: Fungicidal activity: wheat brown rust (PUCCRT), wheat seedlings, booth sprayer to run-off or track spray. The class given is in vivo. The conditions noted are these: for pest or weed control at 121.5 g/ha: Low-Volume Cereal Activity at 121.5 g/H; for pest or weed control at 100 ppm: High-Volume Cereal Activity at 100 ppm.
The mark [4] stands for this setting: 24 h, 1 Day Protectant, read-out: SEPTTR 1DP.
The mark [5] stands for this setting: 72 h, 3 Day Curative, read-out: SEPTTR 3DC.
Setting [6] is: 24 h, 1 Day Protectant, read-out: PUCCRT 1DP.
The mark [7] stands for this setting: 72 h, 3 Day Curative, read-out: PUCCRT 3DC.
Setting [8] is: 3DC (Day Curative), read-out: SEPTTR 3DC.
Setting [9] is: 3DC (Day Curative), read-out: PUCCRT 3DC.

Consider `COc1ccnc(C(=O)N[C@@H](C)C(=O)O[C@@H](C)[C@H](Cc2ccccc2)C(C)(C)OCc2ccccc2)c1OCOC(C)=O` [compound 242], for which the pest or weed control at 121.5 g/ha in assay [1] (setting [4]), in assay [1] (setting [5]), in assay [3] (setting [6]) and in assay [3] (setting [7]) was 80 to 100% each time. In assay [2], the “Disease Control PHAKPA 1DP” value is “B (More than 0-Less than 80)”.
Turning to `COc1ccnc(C(=O)N[C@@H](C)C(=O)O[C@@H](C)[C@@H](COCc2ccccc2)Cc2ccccc2)c1OCOC(C)=O` [compound 240], the pest or weed control at 121.5 g/ha is 0 to 80% in assay [1] (setting [4]), 80 to 100% in assay [1] (setting [5]), 80 to 100% in assay [3] (setting [6]) and 80 to 100% in assay [3] (setting [7]). For the same compound, the “Disease Control PHAKPA 1DP” value in assay [2] was “A (80-100)”. Besides, in assay [2], the “Disease Control PHAKPA 3DC” value is recorded as “B (More than 0-Less than 80)”.
As for `CCCO[C@H](CC)[C@@H](Cc1ccccc1)[C@H](C)OC(=O)[C@H](C)NC(=O)c1nccc(OC)c1OCOC(C)=O` [compound 169], the pest or weed control at 100 ppm in assay [1] (setting [4]), in assay [1] (setting [8]), in assay [3] (setting [6]) and in assay [3] (setting [9]) was 80 to 100% each time. Besides, the pest or weed control at 121.5 g/ha in assay [1] (setting [4]), in assay [1] (setting [5]), in assay [3] (setting [6]) and in assay [3] (setting [7]) was 80 to 100% each time. Besides, in assay [2], the “Disease Control PHAKPA 1DP” value was “A (80-100)”. In addition, the “Disease Control PHAKPA 3DC” value in assay [2] is “B (More than 0-Less than 80)”.
With `COC[C@@H](Cc1ccc(F)cc1)[C@H](C)OC(=O)[C@H](C)NC(=O)c1nccc(OC)c1OCOC(C)=O` [compound 243], the pest or weed control at 121.5 g/ha was in the range of 0 to 80% in assay [1] (setting [4]), 0 to 80% in assay [1] (setting [5]), 80 to 100% in assay [3] (setting [6]) and 80 to 100% in assay [3] (setting [7]).
Turning to `CC[C@@H](Oc1ccccc1)[C@@H](Cc1ccccc1)[C@H](C)OC(=O)[C@H](C)NC(=O)c1nccc(OC)c1OC(C)=O` [compound 194], the pest or weed control at 121.5 g/ha lay in the range of 80 to 100% in assay [1] (setting [4]), 80 to 100% in assay [1] (setting [5]), 80 to 100% in assay [3] (setting [6]) and 0 to 80% in assay [3] (setting [7]).
On to `COc1ccnc(C(=O)N[C@@H](C)C(=O)OC(C)C(Cc2ccccc2)Cc2ccccc2)c1OC(C)=O` (some centres unmarked) [compound 260], for which the pest or weed control at 121.5 g/ha in assay [1] (setting [4]) is 80 to 100%; in assay [1] (setting [5]) it was 0 to 80%; in assay [3] (setting [6]), 80 to 100%; in assay [3] (setting [7]) it was 0 to 80%.
Take `COc1ccnc(C(=O)N[C@@H](C)C(=O)OC(C)C(Cc2ccccc2)Cc2ccccc2)c1O` (some centres unmarked) [compound 147]: the pest or weed control at 100 ppm in assay [1] (setting [4]) and in assay [3] (setting [6]) was 80 to 100% in each case.
On to `CC[C@H](NC(=O)c1nccc(OC)c1OC(C)=O)C(=O)O[C@@H](C)C(Cc1ccc(OC)cc1)Cc1cccc(OC)c1` (some centres unmarked) [compound 273], for which the pest or weed control at 121.5 g/ha in assay [1] (setting [4]) lay in the range of 80 to 100%; in assay [1] (setting [5]), 0 to 80%; in assay [3] (setting [6]), 0 to 80%; in assay [3] (setting [7]) it was 0 to 80%.
On to `CCC[C@@H](Cc1ccccc1)[C@H](C)OC(=O)[C@H](C)NC(=O)c1nccc(OC)c1OCOC(C)=O` [compound 184], for which the pest or weed control at 121.5 g/ha in assay [1] (setting [4]), in assay [1] (setting [5]), in assay [3] (setting [6]) and in assay [3] (setting [7]) was 80 to 100% each time.
Turning to `COc1ccnc(C(=O)N[C@@H](C)C(=O)O[C@@H](C)[C@H](Cc2ccc3ccccc3c2)c2ccccc2)c1OC(C)=O` [compound 224], the pest or weed control at 121.5 g/ha in assay [1] (setting [4]), in assay [1] (setting [5]) and in assay [3] (setting [6]) was 0 to 80% throughout.
Regarding `CC[C@H](CC1CC1)[C@@H](Cc1ccccc1)[C@H](C)OC(=O)[C@H](C)NC(=O)c1nccc(OC)c1OCOC(C)=O` [compound 173], the pest or weed control at 121.5 g/ha in assay [1] (setting [4]) was 80 to 100%; in assay [1] (setting [5]), 80 to 100%; in assay [3] (setting [6]) it was 80 to 100%; in assay [3] (setting [7]) it was 0 to 80%.
As for `COc1ccnc(C(=O)N[C@@H](C)C(=O)OC(C)C(Cc2cccc(F)c2)Cc2cccc(F)c2)c1O` (some centres unmarked) [compound 150], the pest or weed control at 100 ppm in assay [1] (setting [4]) and in assay [3] (setting [6]) was 80 to 100% in each case.
For the compound `COc1ccnc(C(=O)N[C@@H](C)C(=O)O[C@@H](C)[C@H](Cc2ccc(F)cc2)C(C)(C)OCc2ccccc2)c1OC(C)=O` [compound 229], the pest or weed control at 121.5 g/ha was in the range of 80 to 100% in assay [1] (setting [4]), 0 to 80% in assay [1] (setting [5]) and 0 to 80% in assay [3] (setting [6]).
For the compound `COc1ccnc(C(=O)N[C@@H](C)C(=O)O[C@@H](C)[C@H](Cc2ccc(F)cc2)C(C)(C)OCc2ccc(F)cc2)c1OC(C)=O` [compound 247], the pest or weed control at 121.5 g/ha in assay [1] (setting [4]), in assay [1] (setting [5]) and in assay [3] (setting [6]) was 0 to 80% in each case.
As to `CC[C@H](Cc1ccccc1)[C@@H](Cc1ccc(F)cc1)[C@H](C)OC(=O)[C@H](C)NC(=O)c1nccc(OC)c1OCOC(C)=O` [compound 174], the pest or weed control at 121.5 g/ha in assay [1] (setting [4]) lay in the range of 80 to 100%; in assay [1] (setting [5]), 0 to 80%; in assay [3] (setting [6]), 80 to 100%; in assay [3] (setting [7]), 0 to 80%.
`CCCC[C@H](c1ccccc1)[C@H](C)OC(=O)[C@H](C)NC(=O)c1nccc(OC)c1OC(=O)C(C)C` [compound 198]: the pest or weed control at 121.5 g/ha lay within 80 to 100% in assay [1] (setting [4]), 80 to 100% in assay [1] (setting [5]), 0 to 80% in assay [3] (setting [6]) and 0 to 80% in assay [3] (setting [7]).
For `COc1ccc(CC(Cc2ccc(OC)cc2)[C@H](C)OC(=O)[C@H](C)NC(=O)c2nccc(OC)c2OCOC(C)=O)cc1` [compound 276], the pest or weed control at 121.5 g/ha in assay [1] (setting [4]) is 80 to 100%; in assay [1] (setting [5]), 0 to 80%; in assay [3] (setting [6]), 80 to 100%.
In the case of `COC[C@@H](Cc1ccc(F)cc1)[C@H](C)OC(=O)[C@H](C)NC(=O)c1nccc(OC)c1OC(C)=O` [compound 231], the pest or weed control at 121.5 g/ha in assay [1] (setting [4]), in assay [1] (setting [5]), in assay [3] (setting [6]) and in assay [3] (setting [7]) was 0 to 80% each time.
As to `CCCC[C@H](c1ccccc1)[C@H](C)OC(=O)[C@H](C)NC(=O)c1nccc(OC)c1OCOC(C)=O` [compound 199], the pest or weed control at 121.5 g/ha in assay [1] (setting [4]), in assay [1] (setting [5]), in assay [3] (setting [6]) and in assay [3] (setting [7]) was 80 to 100% each time.
Take `C=C[C@H](Cc1ccc(C(F)(F)F)cc1)[C@@H](Cc1ccc(F)cc1)[C@H](C)OC(=O)CNC(=O)c1nccc(OC)c1OC(C)=O` [compound 180]: the pest or weed control at 121.5 g/ha in assay [1] (setting [4]) and in assay [3] (setting [6]) was 0 to 80% each time.
With `CCCOC[C@@H](Cc1ccc(OC)cc1)[C@H](C)OC(=O)[C@H](C)NC(=O)c1nccc(OC)c1O` [compound 143], the pest or weed control at 100 ppm in assay [1] (setting [4]) lay in the range of 80 to 100%; in assay [1] (setting [8]), 0 to 80%; in assay [3] (setting [6]) it was 80 to 100%; in assay [3] (setting [9]) it was 0 to 80%.
Turning to `CCOCC(=O)OCOc1c(OC)ccnc1C(=O)N[C@@H](C)C(=O)O[C@@H](C)[C@H](CCC(C)C)c1ccccc1` [compound 215], the pest or weed control at 121.5 g/ha in assay [1] (setting [4]), in assay [1] (setting [5]), in assay [3] (setting [6]) and in assay [3] (setting [7]) was 80 to 100% in each case.
With `CCCO[C@@H](CC)[C@@H](Cc1ccccc1)[C@H](C)OC(=O)[C@H](CC)NC(=O)c1nccc(OC)c1O` [compound 95], the pest or weed control at 100 ppm in assay [1] (setting [4]) was 0 to 80%; in assay [1] (setting [8]), 0 to 80%; in assay [3] (setting [6]), 80 to 100%; in assay [3] (setting [9]) it was 80 to 100%.
As for `COc1ccnc(C(=O)N[C@@H](C)C(=O)O[C@@H](C)[C@H](Cc2ccc(F)cc2)c2ccccc2)c1OCOC(=O)C(C)C` [compound 223], the pest or weed control at 121.5 g/ha in assay [1] (setting [4]) lay in the range of 80 to 100%; in assay [1] (setting [5]), 80 to 100%; in assay [3] (setting [6]) it was 80 to 100%; in assay [3] (setting [7]), 0 to 80%.
